Consider 25 compounds from US12428406B2 (PMV Pharmaceuticals, Inc., priority 2019, dated 2025).

T1 sequence (P04637 94-312, change not shown): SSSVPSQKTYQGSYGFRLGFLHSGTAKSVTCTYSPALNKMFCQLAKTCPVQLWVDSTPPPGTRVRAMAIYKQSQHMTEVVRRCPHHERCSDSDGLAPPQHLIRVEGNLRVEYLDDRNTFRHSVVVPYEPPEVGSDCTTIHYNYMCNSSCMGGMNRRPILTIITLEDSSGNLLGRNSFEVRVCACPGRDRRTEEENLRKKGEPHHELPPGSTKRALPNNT

The experiment has as its target T1, p53 Y220C (Homo sapiens, UniProt P04637, Y220C).
T1 construct: The recombinant protein was a truncation mutant containing only amino acids 94-312 of p53; made in house; host or cells: E. coli
Description: In vitro DNA binding activity assay (HTRF / TR-FRET): stabilization of p53 Y220C and increase of its DNA binding activity. The format is biochemical. As to conditions: recombinant His-tagged p53 Y220C DNA binding domain (aa 94-312), biotin-labeled consensus DNA, incubated at 27° C. or 29° C. for 60 min. In short, it runs like this: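 Test compounds, diluted 3-fold in DMSO from 4.5 mM stocks, were incubated with bacterially expressed His-tagged p53 Y220C at room temperature for 15 min, and after a further step for 20 min. DNA binding was detected by time-resolved FRET between APC and europium labels. SC150 marks the concentration increasing binding by 50%.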
In the case of `COc1cc(-c2nccs2)ccc1NCC#Cc1cc2c(NC3CCN(C)CC3)cccc2n1CC(F)(F)F` [Compound 509A, 2-(3-{[2-methoxy-4-(1,3-thiazol-2-yl)phenyl]amino}prop-1-yn-1-yl)-N-(1-methylpiperidin-4-yl)-1-(2,2,2-trifluoroethyl)-1H-indol-4-amine], the “SC150 (concentration of the compound required to increase the DNA binding activity by 50%)” value was “+ (+ = 0 μM ≤ SC150 < 0.05 μM)”. For `COCCn1cc(-c2ccc(NCC#Cc3cc4c(NC5CCN(C)CC5)cccc4n3CC(F)(F)F)c(OC)c2)cn1` [Compound 510A, 2-[3-({2-methoxy-4-[1-(2-methoxyethyl)-1H-pyrazol-4-yl]phenyl}amino)prop-1-yn-1-yl]-N-(1-methylpiperidin-4-yl)-1-(2,2,2-trifluoroethyl)-1H-indol-4-amine] the value was “+ (+ = 0 μM ≤ SC150 < 0.05 μM)”; for `COc1cc(C(=O)N2CC3(CCOCC3)C2)ccc1NCC#Cc1cc2c(NC3CCN(C)CC3)cccc2n1CC(F)(F)F` [Compound 511A, 2-{3-[(2-methoxy-4-{7-oxa-2-azaspiro[3.5]nonane-2-carbonyl}phenyl)amino]prop-1-yn-1-yl}-N-(1-methylpiperidin-4-yl)-1-(2,2,2-trifluoroethyl)-1H-indol-4-amine], “+ (+ = 0 μM ≤ SC150 < 0.05 μM)”. Under `COc1cc(Cl)ccc1NCC#Cc1cc2c(NC3CCN(C)CC3)cccc2n1CC(F)(F)F` [Compound 512A, 2-{3-[(4-chloro-2-methoxyphenyl)amino]prop-1-yn-1-yl}-N-(1-methylpiperidin-4-yl)-1-(2,2,2-trifluoroethyl)-1H-indol-4-amine] stands “++ (++ = 0.05 μM ≤ SC150 < 0.1 μM)”.

Consider `COc1cc(C(N)=O)c(F)cc1NCC#Cc1cc2c(NC3CCN(C)CC3)cccc2n1CC(F)(F)F` [Compound 514A, 2-fluoro-5-methoxy-4-[(3-{4-[(1-methylpiperidin-4-yl)amino]-1-(2,2,2-trifluoroethyl)-1H-indol-2-yl}prop-2-yn-1-yl)amino]benzamide], for which the “SC150 (concentration of the compound required to increase the DNA binding activity by 50%)” value is “+ (+ = 0 μM ≤ SC150 < 0.05 μM)”.

As to `COc1cc(C(F)(F)F)ccc1NCC#Cc1cc2c(NC3CCN(C)CC3)cccc2n1CC(F)(F)F` [Compound 515A, 2-(3-{[2-methoxy-4-(trifluoromethyl)phenyl]amino}prop-1-yn-1-yl)-N-(1-methylpiperidin-4-yl)-1-(2,2,2-trifluoroethyl)-1H-indol-4-amine], the “SC150 (concentration of the compound required to increase the DNA binding activity by 50%)” value is given as “++ (++ = 0.05 μM ≤ SC150 < 0.1 μM)”.

With `CNC(=O)c1cc(OC)c(NCC#Cc2cc3c(NC4CCN(C)CC4)cccc3n2CC(F)(F)F)cc1F` [Compound 516A, 2-fluoro-5-methoxy-N-methyl-4-[(3-{4-[(1-methylpiperidin-4-yl)amino]-1-(2,2,2-trifluoroethyl)-1H-indol-2-yl}prop-2-yn-1-yl)amino]benzamide], the “SC150 (concentration of the compound required to increase the DNA binding activity by 50%)” value is on record as “+ (+ = 0 μM ≤ SC150 < 0.05 μM)”. For `COc1cc(S(C)(=O)=O)ccc1NCC#Cc1cc2c(NC3CCN(C)CC3)cccc2n1CC1CO1` (stereo not shown) [Compound 517A, 2-{3-[(4-methanesulfonyl-2-methoxyphenyl)amino]prop-1-yn-1-yl}-N-(1-methylpiperidin-4-yl)-1-[(oxiran-2-yl)methyl]-1H-indol-4-amine] the value was “+++ (+++ = 0.1 μM ≤ SC150 < 0.2 μM)”. In the case of `COc1cc(S(C)(=O)=O)cc(F)c1NCC#Cc1cc2c(NC3CCN(C)CC3)cccc2n1CC(F)(F)F` [Compound 519A], the “SC150 (concentration of the compound required to increase the DNA binding activity by 50%)” value is “++++ (++++ = 0.2 μM ≤ SC150 < 1 μM)”. Under `COc1cc(S(C)(=O)=O)ccc1NCC#Cc1c(C)c2c(NC3CCN(C)CC3)cccc2n1CC(F)(F)F` [Compound 520A, 2-{3-[(4-methanesulfonyl-2-methoxyphenyl)amino]prop-1-yn-1-yl}-3-methyl-N-(1-methylpiperidin-4-yl)-1-(2,2,2-trifluoroethyl)-1H-indol-4-amine] stands “+++ (+++ = 0.1 μM ≤ SC150 < 0.2 μM)”; under `COc1cc(S(C)(=O)=O)c(F)cc1NCC#Cc1cc2c(NC3CCN(C)CC3)cccc2n1CC(F)(F)F` [Compound 522A, 2-{3-[(5-fluoro-4-methanesulfonyl-2-methoxyphenyl)amino]prop-1-yn-1-yl}-N-(1-methylpiperidin-4-yl)-1-(2,2,2-trifluoroethyl)-1H-indol-4-amine], “+ (+ = 0 μM ≤ SC150 < 0.05 μM)”. Under `CN1CCC(Nc2cccc3c2cc(C#CCNc2ccc(S(C)(=O)=O)s2)n3CC(F)(F)F)CC1` [Compound 523A] stands “+ (+ = 0 μM ≤ SC150 < 0.05 μM)”. Under `CNC(=O)c1ccc(NCC#Cc2cc3c(NC4CCN(C)CC4)cccc3n2CC(F)(F)F)s1` [Compound 524A, N-methyl-5-((3-(4-((1-methylpiperidin-4-yl)amino)-1-(2,2,2-trifluoroethyl)-1H-indol-2-yl)prop-2-yn-1-yl)amino)thiophene-2-carboxamide] stands “+ (+ = 0 μM ≤ SC150 < 0.05 μM)”. Regarding `CN1CCC(Nc2cccc3c2cc(C#CCNc2ccc(C(=O)N(C)C)s2)n3CC(F)(F)F)CC1` [Compound 525A, N,N-dimethyl-5-((3-(4-((1-methylpiperidin-4-yl)amino)-1-(2,2,2-trifluoroethyl)-1H-indol-2-yl)prop-2-yn-1-yl)amino)thiophene-2-carboxamide], the “SC150 (concentration of the compound required to increase the DNA binding activity by 50%)” value is recorded as “+ (+ = 0 μM ≤ SC150 < 0.05 μM)”.

With `COc1cc(S(C)(=O)=O)ccc1NCC#Cc1cc2c(N[C@H]3CCN(C)C[C@H]3OC)cccc2n1CC(F)(F)F` [Compound 531A, 2-{3-[(4-methanesulfonyl-2-methoxyphenyl)amino]prop-1-yn-1-yl}-N-[(3R,4S)-3-methoxy-1-methylpiperidin-4-yl]-1-(2,2,2-trifluoroethyl)-1H-indol-4-amine], the “SC150 (concentration of the compound required to increase the DNA binding activity by 50%)” value is listed as “++ (++ = 0.05 μM ≤ SC150 < 0.1 μM)”. With `COc1cc(S(C)(=O)=O)ccc1NCC#Cc1cc2c(N[C@@H]3CCN(C)C[C@@H]3OC)cccc2n1CC(F)(F)F` [Compound 532A, 2-{3-[(4-methanesulfonyl-2-methoxyphenyl)amino]prop-1-yn-1-yl}-N-[(3S,4R)-3-methoxy-1-methylpiperidin-4-yl]-1-(2,2,2-trifluoroethyl)-1H-indol-4-amine], the “SC150 (concentration of the compound required to increase the DNA binding activity by 50%)” value is on record as “++ (++ = 0.05 μM ≤ SC150 < 0.1 μM)”. Under `CCN1CCC(Nc2cccc3c2cc(C#CCNc2ccc(S(C)(=O)=O)cc2OCF)n3CC(F)(F)F)CC1` [Compound 534A, N-(1-ethylpiperidin-4-yl)-2-(3-{[2-(fluoromethoxy)-4-methanesulfonylphenyl]amino}prop-1-yn-1-yl)-1-(2,2,2-trifluoroethyl)-1H-indol-4-amine] stands “+ (+ = 0 μM ≤ SC150 < 0.05 μM)”; under `CCN1CCC(Nc2cccc3c2cc(C#CCNc2ccc(C(=O)NC)cc2OC)n3CC(F)(F)F)CC1` [Compound 535A, 4-[(3-{4-[(1-ethylpiperidin-4-yl)amino]-1-(2,2,2-trifluoroethyl)-1H-indol-2-yl}prop-2-yn-1-yl)amino]-3-methoxy-N-methylbenzamide], “+ (+ = 0 μM ≤ SC150 < 0.05 μM)”. For `CCN1CCC(Nc2cccc3c2cc(C#CCNc2ccc(S(C)(=O)=O)cc2OCC#N)n3CC(F)(F)F)CC1` [Compound 536A] the value was “+ (+ = 0 μM ≤ SC150 < 0.05 μM)”. Under `CCN1CCC(Nc2cccc3c2cc(C#CCNc2ccc(S(C)(=O)=O)cc2OC)n3CC(F)(F)F)CC1` [Compound 537A] stands “+ (+ = 0 μM ≤ SC150 < 0.05 μM)”; under `CCN1CCC(Nc2cccc3c2cc(C#CCNc2ccc(S(N)(=O)=O)cc2OC)n3CC(F)(F)F)CC1` [Compound 538A, 4-[(3-{4-[(1-ethylpiperidin-4-yl)amino]-1-(2,2,2-trifluoroethyl)-1H-indol-2-yl}prop-2-yn-1-yl)amino]-3-methoxybenzene-1-sulfonamide], “+ (+ = 0 μM ≤ SC150 < 0.05 μM)”; under `CNC(=O)c1ccc(NCC#Cc2cc3c(NC4CCN(C(C)C)CC4)cccc3n2CC(F)(F)F)c(OC)c1` [Compound 539A, 3-methoxy-N-methyl-4-{[3-(4-{[1-(propan-2-yl)piperidin-4-yl]amino}-1-(2,2,2-trifluoroethyl)-1H-indol-2-yl)prop-2-yn-1-yl]amino}benzamide], “+ (+ = 0 μM ≤ SC150 < 0.05 μM)”.

For `CC(C)N1CCC(Nc2cccc3c2cc(C#CCNc2ccc(S(C)(=O)=O)cc2OCC#N)n3CC(F)(F)F)CC1` [Compound 540A], the “SC150 (concentration of the compound required to increase the DNA binding activity by 50%)” value is reported as “+ (+ = 0 μM ≤ SC150 < 0.05 μM)”. As for `CC(C)N1CCC(Nc2cccc3c2cc(C#CCNc2ccc(S(C)(=O)=O)cc2OCF)n3CC(F)(F)F)CC1` [Compound 541A, 2-(3-{[2-(fluoromethoxy)-4-methanesulfonylphenyl]amino}prop-1-yn-1-yl)-N-[1-(propan-2-yl)piperidin-4-yl]-1-(2,2,2-trifluoroethyl)-1H-indol-4-amine], the “SC150 (concentration of the compound required to increase the DNA binding activity by 50%)” value is reported as “+ (+ = 0 μM ≤ SC150 < 0.05 μM)”. Under `COc1cc(S(C)(=O)=O)ccc1NCC#Cc1cc2c(NC3CCN(C(C)C)CC3)cccc2n1CC(F)(F)F` [Compound 542A, 2-{3-[(4-methanesulfonyl-2-methoxyphenyl)amino]prop-1-yn-1-yl}-N-[1-(propan-2-yl)piperidin-4-yl]-1-(2,2,2-trifluoroethyl)-1H-indol-4-amine] stands “+ (+ = 0 μM ≤ SC150 < 0.05 μM)”.
